In patent publication US7309491B2, “Heat shock protein-based vaccines and immunotherapies” (priority 2003, dated 2007):
Where “and” joins values, the source holds several entries; their conditions need not be identical. Equal values may be shown once. Read-outs that look alike come from different tables or passages of the source.

Experiments:
CD8+ T cells = format: in vivo, B6 mice
[1] = system: modified to express ovalbumin (E.G7); design: species or system B6 mice; details: mouse, in vivo
B3Z cells = test: in-vitro antigen presentation assay (IL-2 produced by B3Z cells); format: cell-based
Source text: The in-vitro antigen presentation assay described above was utilized further in order to evaluate the formulations of the invention.

[2] = system: SIINFEKL-pulsed target cells; design: species or system mice; details: mouse, in vivo
[3] = target: recombinant human or murine heat shock protein 70 (hsp70); test: hsp70 binding inhibition assay (Hill plots) relative to labeled reference hybrid antigen; details: read-out: Kd for hsp70 binding, antigenic domains alone
[4] = Ex. 17 prime-boost, doses as E100

In the case of “NLLRLTGWFFRKRTFSFQLI (SEQ ID NO:912) (Hybrid antigen)”, the “Number of Spots per 300,000 cells, Medium” value (CD8+ T cells; mouse, in vivo) is reported as 0.3 ± 0.4 Spots per 300,000 cells, the “Number of Spots per 300,000 cells, Response to Class I epitope when Class I and Class II hybrid antigen admixture is administered” value (CD8+ T cells; mouse, in vivo) is reported as 43 ± 7.6 Spots per 300,000 cells and the “Number of Spots per 300,000 cells, Response to Class I epitope when Class I hybrid antigen administered” value (CD8+ T cells; mouse, in vivo) is reported as 5.3 ± 1.5 Spots per 300,000 cells. For the same sequence, the “Number of Spots per 300,000 cells, Splenocytes” value (CD8+ T cells; mouse, in vivo) was 0 ± 0 Spots per 300,000 cells.
With NLLRLTGWFFRKSIINFEKL the “Number of Spots per 4 × 10^5 CD8 T cells: Con A Positive control” value (CD8+ T cells; mouse, in vivo) was 459 ± 149, the “Number of Spots per 4 × 10^5 CD8 T cells: Medium control” value (CD8+ T cells; mouse, in vivo) was 1.00 ± 1.00 and the “Number of Spots per 4 × 10^5 CD8 T cells: SIINFEKL (SEQ ID NO:868)” value (CD8+ T cells; mouse, in vivo) was 151 ± 20.7. The “Number of Spots per 4 × 10^5 CD8 T cells: Unpulsed control” value (CD8+ T cells; mouse, in vivo) was 1.67 ± 0.58, the “Number of Spots per 4 × 10^5 CD8 T cells: VSV control” value (CD8+ T cells; mouse, in vivo) was 0.00 ± 0.00 and the “Number of Spots per 300,000 CD8 T cells: Con A positive control” value (CD8+ T cells; mouse, in vivo) was 688 ± 41.7. For the same sequence, the “Number of Spots per 300,000 CD8 T cells: Medium control” value (CD8+ T cells; mouse, in vivo) was 0.00 ± 0.00, the “Number of Spots per 300,000 CD8 T cells: SIINFEKL (SEQ ID NO:868)” value (CD8+ T cells; mouse, in vivo) was 211 ± 17.0 and the “Number of Spots per 300,000 CD8 T cells: Unpulsed control” value (CD8+ T cells; mouse, in vivo) was 0.50 ± 0.71. The “Number of Spots per 300,000 CD8 T cells: VSV control” value (CD8+ T cells; mouse, in vivo) was 1.00 ± 0.00, the “Number of Spots per 300,000 cells: Medium” value (CD8+ T cells; mouse, in vivo) was 0 ± 0 and the “Number of Spots per 300,000 cells: Medium control” value (CD8+ T cells; mouse, in vivo) was 0.67 ± 0.82. The “Number of Spots per 300,000 cells: SIINFEKL (SEQ ID NO:868)” value (CD8+ T cells; mouse, in vivo) was 109 ± 14, the “Number of Spots per 300,000 cells: Unpulsed Splenocytes” value (CD8+ T cells; mouse, in vivo) was 3.0 ± 2.0 and the “Number of Spots per 300,000 cells: Unpulsed control” value (CD8+ T cells; mouse, in vivo) was 0 ± 0. The “Number of Spots per 300,000 cells: VSV control” value (CD8+ T cells; mouse, in vivo) was 0.67 ± 0.82, the “Number of Spots per 400,000 cells: Con A positive control” value (CD8+ T cells; mouse, in vivo) was 930 ± 23 spots per 400,000 cells and 1007 ± 17 spots per 400,000 cells and 906 ± 17 spots per 400,000 cells and the “Number of Spots per 400,000 cells: Medium control” value (CD8+ T cells; mouse, in vivo) was 1.0 ± 1.7 spots per 400,000 cells and 2.0 ± 0.41 spots per 400,000 cells and 1.33 ± 0.41 spots per 400,000 cells. The “number of spots per 400,000 cells; immunized day 0, analyzed day 7” value (CD8+ T cells; mouse, in vivo) was 72 ± 5.0 spots per 400,000 cells, the “number of spots per 400,000 cells; immunized day 0, analyzed day 21” value (CD8+ T cells; mouse, in vivo) was 42 ± 7.0 spots per 400,000 cells and the “number of spots per 400,000 cells; immunized day 0, analyzed day 28” value (CD8+ T cells; mouse, in vivo) was 82 ± 11 spots per 400,000 cells. For the same sequence, the “number of spots per 400,000 cells; immunized days 0, 7, analyzed day 21” value (CD8+ T cells; mouse, in vivo) was 24 ± 6.0 spots per 400,000 cells, the “number of spots per 400,000 cells; immunized days 0, 14, analyzed day 28” value (CD8+ T cells; mouse, in vivo) was 25 ± 9.0 spots per 400,000 cells and the “Number of Spots per 300,000 cells: SIINFEKL” value (CD8+ T cells; mouse, in vivo, sc) was 11 ± 1.8. The “number of mice with tumors after 31 days” value [1] was “Three of 10”, the “Pg/ml IL-2 produced by B3Z cells” value (B3Z cells) was 46 ± 11 pg/mL and the “CTL assay: % killing at 200:1 E/T” value [2] was 9.91 ± 5.57%.
For “NLLRLTGWFFRKSSWDFITV (SEQ ID NO:911) (Hybrid antigen)”, the “Number of Spots per 300,000 cells, Medium” value (CD8+ T cells; mouse, in vivo) was 0.7 ± 0.8 Spots per 300,000 cells, the “Number of Spots per 300,000 cells, Response to Class I epitope when Class I and Class II hybrid antigen admixture is administered” value (CD8+ T cells; mouse, in vivo) was 98 ± 5.8 Spots per 300,000 cells and the “Number of Spots per 300,000 cells, Response to Class I epitope when Class I hybrid antigen administered” value (CD8+ T cells; mouse, in vivo) was 18 ± 0.7 Spots per 300,000 cells. The “Number of Spots per 300,000 cells, Splenocytes” value (CD8+ T cells; mouse, in vivo) was 0.7 ± 0.4 Spots per 300,000 cells.
In the case of NLLRLTGWFRSIINFEKL, the “Number of Spots per 300,000 cells: Medium” value (CD8+ T cells; mouse, in vivo) is reported as 0.67 ± 0.58, the “Number of Spots per 300,000 cells: SIINFEKL (SEQ ID NO:868)” value (CD8+ T cells; mouse, in vivo) is reported as 12 ± 2 and the “Number of Spots per 300,000 cells: Unpulsed Splenocytes” value (CD8+ T cells; mouse, in vivo) is reported as 0.67 ± 0.58. For the same sequence, the “Number of Spots per 400,000 cells: Medium control” value (CD8+ T cells; mouse, in vivo) was 1.0 ± 1.7 spots per 400,000 cells, the “Number of Spots per 400,000 cells: Unpulsed control” value (CD8+ T cells; mouse, in vivo) was 0.0 ± 0.0 spots per 400,000 cells and the “Number of spots per 400,000 cells: VSV control” value (CD8+ T cells; mouse, in vivo) was 0.67 ± 0.58 spots per 400,000 cells. For the same sequence, the “Number of spots per 400,000 cells: SIINFEKL (SEQ ID NO:868)” value (CD8+ T cells; mouse, in vivo, sc) was 31 ± 5.7 spots per 400,000 cells.
With NLLRLTGWRKSIINFEKL the “Number of Spots per 400,000 cells: Con A positive control” value (CD8+ T cells; mouse, in vivo) was 842 ± 73 spots per 400,000 cells, the “Number of Spots per 400,000 cells: Medium control” value (CD8+ T cells; mouse, in vivo) was 1.0 ± 1.0 spots per 400,000 cells and the “Number of Spots per 400,000 cells: Unpulsed control” value (CD8+ T cells; mouse, in vivo) was 1.0 ± 1.0 spots per 400,000 cells. For the same sequence, the “Number of spots per 400,000 cells: SIINFEKL (SEQ ID NO:868)” value (CD8+ T cells; mouse, in vivo) was 24 ± 1 spots per 400,000 cells, the “Number of spots per 400,000 cells: VSV control” value (CD8+ T cells; mouse, in vivo) was 5.0 ± 3.0 spots per 400,000 cells and the “CTL % killing at 200:1 E/T” value [2] was 24%.
In the case of RGYVYQGL, the Kd [3] is reported as 82 µM.
For SIINFEKL [reference compound], the “Number of spots per 400,000 cells: SIINFEKL (SEQ ID NO:868)” value (CD8+ T cells; Ex. 8 (200-17), B6 mice, no added hsp70, 10 μg SIINFEKL or 0.5 μg […]) was 2.33 ± 0.41 spots per 400,000 cells, the “Number of Spots per 400,000 cells: Con A positive control” value (CD8+ T cells; Ex. 8 (200-17), doses as E40) was 928 ± 72 spots per 400,000 cells and the “Number of Spots per 400,000 cells: Medium control” value (CD8+ T cells; Ex. 8 (200-17), doses as E40) was 0.33 ± 0.41 spots per 400,000 cells. The “Number of Spots per 400,000 cells: Unpulsed control” value (CD8+ T cells; Ex. 8 (200-17), doses as E40) was 1.33 ± 0.82 spots per 400,000 cells, the “Number of spots per 400,000 cells: VSV control” value (CD8+ T cells; Ex. 8 (200-17), doses as E40) was 1.7 ± 0.41 spots per 400,000 cells and the “Number of spots per 400,000 cells: VSV control” value (CD8+ T cells; Ex. 9 (VSV-72-02), doses as E55) was 1.0 ± 1.0 spots per 400,000 cells. The “number of spots per 400,000 cells; immunized day 0, analyzed day 7” value (CD8+ T cells; Ex. 17 prime-boost, 2 μg hsp70, 2 μg hsp70 with 4 μg SIINFEKL or 4 μg hybrid antigen, 2 μg hybrid antigen alone, SIINFEKL dose not given) was 3.0 ± 2.0 spots per 400,000 cells, the “number of spots per 400,000 cells; immunized day 0, analyzed day 21” value (CD8+ T cells; [4]) was 0.0 ± 1.0 spots per 400,000 cells and the “number of spots per 400,000 cells; immunized day 0, analyzed day 28” value (CD8+ T cells; [4]) was 1.0 ± 1.0 spots per 400,000 cells. The “number of spots per 400,000 cells; immunized days 0, 7, analyzed day 21” value (CD8+ T cells; [4]) was 2.0 ± 1.0 spots per 400,000 cells, the “number of spots per 400,000 cells; immunized days 0, 14, analyzed day 28” value (CD8+ T cells; [4]) was 1.0 ± 1.0 spots per 400,000 cells and the “Number of Spots per 400,000 cells: Con A positive control” value (CD8+ T cells; mouse, in vivo) was 478 ± 67 spots per 400,000 cells. The “Number of Spots per 400,000 cells: Medium control” value (CD8+ T cells; mouse, in vivo) was 0.0 ± 0.0 spots per 400,000 cells, the “Number of Spots per 400,000 cells: Unpulsed control” value (CD8+ T cells; mouse, in vivo) was 0.0 ± 1.0 spots per 400,000 cells and the “Number of spots per 400,000 cells: SIINFEKL (SEQ ID NO:868)” value (CD8+ T cells; mouse, in vivo) was 1.0 ± 1.0 spots per 400,000 cells. For the same sequence, the “Pg/ml IL-2 produced by B3Z cells” value (B3Z cells; Ex. 12 (200-MF-41), 0.5 ng SIINFEKL, 5 ng […], 1.4 ug hsp70) was 2690 ± 369 pg/mL and the “CTL % killing at 200:1 E/T” value [2] was 6%.
